We go through two molecules from article PMC3637032 (Clinical Pharmacology : Advances and Applications, 2013).

The subject of series [1] is gastric pH. To be noted: cited from earlier work.
For series [2] the following is noted: cited from earlier work.
The test system of series [3] is P-glycoprotein. To be noted: apixaban: ref not given; famotidine: ref 20; cited from earlier work.
Series [4] is classed as in vivo, human.
Series [5] deals with human organic cation transporter (hOCT)-3. To be noted: cited from earlier work.
Series [6] has as its system hOCT-1. To be noted: cited from earlier work.
Series [7] has as its system hOCT-2. To be noted: cited from earlier work.
Series [8] relates to breast cancer resistance protein. To be noted: cited from earlier work.
The conditions of series [9]: cited from earlier work. The source holds these as a separate data set.
Series [10] concerns coagulation factor Xa. The following applies: cited from earlier work.
The test system of series [11] is hOCT-2 transporters. To be noted: in vitro findings; ref data on file, Bristol-Myers Squibb, Princeton, NJ, USA; cited from earlier work.
The format of series [12] is in vivo, human. This is another data set of the same source.
For series [13] the following is noted: compound lacks ionizable groups; cited from earlier work.
Series [14] in a line: Stability of apixaban in human plasma. Format: in vitro ADME. The following applies: at −20°C.

The structures appear in SMILES notation.

With `NC(N)=Nc1nc(CSCCC(N)=NS(N)(=O)=O)cs1` [famotidine], in series [1], the “Time for gastric pH to return to baseline after cessation of administration” value is recorded as 10–12 hours and the “Time of maximal increases in gastric pH post-dose” value was 1–3 hours. In [2], the Metabolism entry is on record as “minimally metabolized”, the “Potential for CYP-mediated drug–drug interactions” value is given as “minimal potential” and the “Time of maximal plasma concentrations after oral administration” value is 2 to 3 h. For the same molecule, in series [3], the P-glycoprotein substrate result is “substrate”. Moreover, the “Effect of coadministration on apixaban Cmax, AUC0–T, or AUC∞” value in [4] (famotidine 40 mg 3 hours before apixaban 10 mg, healthy subjects) was “no effect”. The “Inhibition of hOCT-3” value in series [5] was “potent inhibitor”. Moreover, in series [6], the “Inhibition of hOCT-1” value is recorded as “moderate inhibitor”. For the same molecule, the “Inhibition of hOCT-2” value in series [7] was “moderate inhibitor”.
One may read the AUC(0-inf) as the area under the concentration-time curve extrapolated to infinity. Read a high AUC(0-inf) as high exposure. What is called AUC(0-t) is exposure summed from dosing to a finite time, without extrapolation to infinity. A high value points to more exposure. What is called Cmax is the maximum level reached in the sampled fluid or tissue. In general, half-life refers to how long it takes for the measured level to halve. Take `COc1ccc(-n2nc(C(N)=O)c3c2C(=O)N(c2ccc(N4CCCCC4=O)cc2)CC3)cc1` [Apixaban, 1-(4-methoxyphenyl)-7-oxo-6-(4-(2-oxopiperidin-1-yl)phenyl)-4,5,6,7-tetrahydro-1H-pyrazolo[3,4-c]pyridine-3-carboxamide]: the “Breast cancer resistance protein substrate” value in series [8] is recorded as “substrate”. In series [9], the “Effect of food on apixaban exposure” value was “no relevant effect” and the “Renal excretion as share of total clearance” value is listed as “approximately 27%”. Besides, in series [9] (clinical studies), the Elimination half-life entry is “approximately 12 hours” and the Oral bioavailability result is recorded as “approximately 50%”. For the same molecule, in series [10], the “Factor Xa inhibition (description)” value was “potent, reversible, direct, and highly selective inhibitor”. In addition, the hOCT-2 substrate result in series [11] was “not a substrate”. Moreover, the P-glycoprotein substrate result in series [3] is “substrate”. For the same molecule, the “Deaths, serious adverse events, discontinuations, bleeding-related adverse events” value in series [12] (18 healthy subjects, both treatment periods) is “No deaths, serious adverse events, discontinuations due to adverse events, or clinically relevant bleeding-related adverse events”. In addition, the Tolerability result in series [12] (apixaban 10 mg alone and with famotidine 40 mg, healthy subjects) was “well tolerated”. For the same molecule, in series [13], the “Aqueous solubility dependence on pH” value is “not affected by changes in pH”. In addition, in [4] (both, human, plasma, po, 10 mg), the AUC(0-inf) stood at 2220 ng·h/mL, the AUC(0-t) was 2190 ng·h/mL, the peak level (Cmax) was 230 ng/mL and the half-life is 9.2 h. In addition, the “Predose period 2 apixaban concentration as fraction of Cmax” value in series [4] (six subjects with measurable predose concentrations) is less than 1.5%. In addition, the “Stability in human plasma” value in [14] was “at least 589 days”.
